Experiments:
[1] = molecular target: T1, Ba/F3 ETV5-FGFR4 (Homo sapiens, UniProt P22455); test: Ba/F3 cell viability assay (CellTiter-Glo 2.0); type: cell-based; settings: Ba/F3 cell data, ETV5-FGFR4 fusion, 48 hours
T1 construct: host or cells: Ba/F3; the other entry of the earlier key: ETV5 (P41161, ETS translocation variant 5)
Source text: Experimental Purpose: Recombinant kinase fusions are transduced into parental Ba/F3, which becomes dependent upon this constitutive kinase activity for IL3-independent survival. Inhibition of kinase activity leads to cell death, which is monitored using CellTiter-Glo® 2.0 (Promega) which measures intracellular ATP concentration that in turn serves as a marker for viability. BCR-FGFR1 Ba/F3, BCR-FGFR2 and FGFR3-BAIAP2L1 Ba/F3 were obtained from Advanced Cellular Dynamics (Seattle, WA). ETV6-FGFR4 was obtained from Kyinno (Waltham, MA).
Cell Viability Assay Procedure: Cell Titer-Glo® 2.0 Luminescent cell viability assay reagent was purchased from Promega (Madison, WI). Ba/F3 cell lines were cultured in RPMI1640 media supplemented with 10% fetal bovine serum. Cultures were maintained at 37° C. in a humidified atmosphere of 5% CO2 and 95% air.
Cells were plated in 96-well clear bottom/white plates (Corning #3903) at 10,000 cells/well in 100 μl of media, incubated overnight. The next day, test compound DMSO stock solutions were made at 10 mM and 2 μM final concentration. Compounds were then added to cells in a 9-dose, 10-fold dilution series starting at 30 μM with an HP 300e Digital Dispenser (each dose was applied in triplicate). DMSO was backfilled to each well up to 301 nL total volume of test compound+DMSO, and a total of 301 nL DMSO was added to a control/no test compound well in triplicate. The cells in cell culture plates were incubated with the compounds at 37° C. and 5% CO2 for 48 hours. Then 50 μl of Cell Titer Glo 2.0 reagent was added to each well of the cell culture plates. The contents were covered from light and mixed on an orbital shaker at room temperature for 10 min. Luminescence was recorded by a Synergy H1 Microplate Reader (Biotek, Winooski, VT). Cells were assessed as a percentage of DMSO only treated control cells. Curves were plotted and IC50 values were calculated using the GraphPad Prism 8 program based on a sigmoidal dose-response equation (4 parameter).

[2] = molecular target: T2, Ba/F3 BCR-FGFR2 (Homo sapiens, UniProt P21802); test: Ba/F3 cell viability assay (CellTiter-Glo 2.0); type: cell-based; settings: Ba/F3 cell data, BCR-FGFR2 fusion, 48 hours
T2 construct: BCR (fusion partner); host or cells: Ba/F3; the other entry of the earlier key: BCR (P11274, Breakpoint cluster region protein)

[3] = system: KatoIIII; test: Cancer cell line cell viability assay (CellTiter-Glo 2.0); type: cell-based; settings: 72 hours
[4] = molecular target: T3, Ba/F3 FGFR3-BAIAP2L1 (Homo sapiens, UniProt P22607); test: Ba/F3 cell viability assay (CellTiter-Glo 2.0); type: cell-based; settings: Ba/F3 cell data, FGFR3-BAIAP2L1 fusion, 48 hours
T3 construct: BAIAP2L1 (fusion partner, Q9UHR4 if human); host or cells: Ba/F3; the other entry of the earlier key: BAIAP2L1 (Q9UHR4, BAR/IMD domain-containing adapter protein 2-like 1)

[5] = molecular target: T4, Ba/F3 BCR-FGFR1 (Homo sapiens, UniProt P11362); test: Ba/F3 cell viability assay (CellTiter-Glo 2.0); type: cell-based; settings: Ba/F3 cell data, BCR-FGFR1 fusion, 48 hours
T4 construct: BCR (fusion partner); host or cells: Ba/F3; the other entry of the earlier key: BCR (P11274, Breakpoint cluster region protein)

[6] = molecular target: T5, FGFR3 (Homo sapiens, UniProt P22607); test: Kinase binding assay (Kd), kinase-tagged T7 phage, affinity beads, qPCR; settings: in vitro binding assay, 11-point 3-fold dilution series
T5 construct: made in house; host or cells: E. coli (BL21-derived) infected with T7 phage
Method: (§1) Kinase-tagged T7 phage strains were prepared in an E. coli host derived from the BL21 strain. E. coli were grown to log-phase and infected with T7 phage and incubated with shaking at 32° C. until lysis. The lysates were centrifuged and filtered to remove cell debris. Streptavidin-coated magnetic beads were treated with biotinylated small molecule ligands for 30 minutes at room temperature to generate affinity resins for kinase assays. The liganded beads were blocked with excess biotin and washed with blocking buffer SeaBlock (Pierce), 1% BSA, 0.05% Tween 20, 1 mM DTT to remove unbound ligand and to reduce non-specific binding. Binding reactions were assembled by combining kinases, liganded affinity beads, and test compounds in 1× binding buffer (20% SeaBlock, 0.17×PBS, 0.05% Tween 20, 6 mM DTT).
(§2) Test compounds were prepared as 111× stocks in 100% DMSO. Kds were determined using an 11-point 3-fold compound dilution series with three DMSO control points. All compounds for Kd measurements are distributed by acoustic transfer (non-contact dispensing) in 100% DMSO. The compounds were then diluted directly into the assays such that the final concentration of DMSO was 0.9%. All reactions performed in polypropylene 384-well plate. Each was a final volume of 0.02 ml. The assay plates were incubated at room temperature with shaking for 1 hour and the affinity beads were washed with wash buffer (1×PBS, 0.05% Tween 20). The beads were then re-suspended in elution buffer (1×PBS, 0.05% Tween 20, 0.5 μM non-biotinylated affinity ligand) and incubated at room temperature with shaking for 30 minutes. The kinase concentration in the eluates was measured by qPCR.
(§3) Binding constants were calculated with a standard dose-response curve using the Hill equation: […]
(§4) The Hill Slope was set to −1. Curves were fitted using a non-linear least square fit with the Levenberg-Marquardt algorithm.

[7] = molecular target: T6, FGFR3 (V555M) (Homo sapiens, UniProt P22607, V555M); test: as above; settings: in vitro binding assay, 11-point 3-fold dilution series
T6 construct: made in house; host or cells: E. coli (BL21-derived) infected with T7 phage
Method: as §1, §2, §3, §4

[8] = molecular target: T7, FGFR4 (Homo sapiens, UniProt P22455); test: as above; settings: in vitro binding assay, 11-point 3-fold dilution series
T7 construct: made in house; host or cells: E. coli (BL21-derived) infected with T7 phage
Method: as §1, §2, §3, §4

[9] = molecular target: T8, FGFR2 (Homo sapiens, UniProt P21802); test: as above; settings: in vitro binding assay, 11-point 3-fold dilution series
T8 construct: made in house; host or cells: E. coli (BL21-derived) infected with T7 phage
Method: as §1, §2, §3, §4

[10] = molecular target: T9, FGFR1 (Homo sapiens, UniProt P11362); test: as above; settings: in vitro binding assay, 11-point 3-fold dilution series
T9 construct: made in house; host or cells: E. coli (BL21-derived) infected with T7 phage
Method: as §1, §2, §3, §4

[11] = system: KG-1; test: Cancer cell line cell viability assay (CellTiter-Glo 2.0); type: cell-based; settings: Homo sapiens; KG-1 (FGFR1-fusion) cell viability, 72 hours
Source text: (§5) Experimental Purpose: To detect the change of intracellular ATP by Cell Titer-Glo® and to evaluate the inhibitory effect of the compounds on cancer cell lines by determining the in vitro IC50 value of the compounds.
(§6) Cell Titer-Glo® 2.0 Luminescent cell viability assay reagent was purchased from Promega (Madison, WI). RT112/84 and KG-1 cell lines were purchased from American Type Culture Collection (Manassas, VA). UM-UC-14 cell line was purchased from Sigma (St. Louis, MO). RT112/84, UM-UC-14, and KG-1 cells were cultured in RPMI1640 media supplemented with 10% fetal bovine serum. Cultures were maintained at 37° C. in a humidified atmosphere of 5% CO2 and 95% air.
(§7) Cell Viability Assay Procedure: Cells were plated in 96-well clear bottom/white plates (Corning #3903) at 10,000 cells/well in 100 μl of media, incubated overnight. The next day, test compound DMSO stock solutions were made at 10 mM and 2 μM final concentration.
(§8) Compounds were then added to cells in a 9-dose, […] dilution series starting at 30 μM with an HP 300e Digital Dispenser (each dose was applied in triplicate). DMSO was backfilled to each well up to 301 nL total volume of test compound+DMSO, and a total of 301 nL DMSO was added to a control/no test compound well in triplicate. The cells in cell culture plates were incubated with the compounds at 37° C. and 5% CO2 for 72 hours. Then 50 μl of Cell Titer Glo 2.0 reagent was added to each well of the cell culture plates. The contents were covered from light and mixed on an orbital shaker at room temperature for 10 min.
(§9) Luminescence was recorded by a Synergy H1 Microplate Reader (Biotek, Winooski, VT). Cells were assessed as a percentage of DMSO only treated control cells. Curves were plotted and IC50 values were calculated using the GraphPad Prism 8 program based on a sigmoidal dose-response equation (4 parameter).

[12] = system: RT112/84; test: as above; type: cell-based; settings: Homo sapiens; RT112/84 (FGFR3-fusion) cell viability, 72 hours
Source text: as §5, §6, §7, §8, §9

T1 sequence (P22455 467-755 limits assumed): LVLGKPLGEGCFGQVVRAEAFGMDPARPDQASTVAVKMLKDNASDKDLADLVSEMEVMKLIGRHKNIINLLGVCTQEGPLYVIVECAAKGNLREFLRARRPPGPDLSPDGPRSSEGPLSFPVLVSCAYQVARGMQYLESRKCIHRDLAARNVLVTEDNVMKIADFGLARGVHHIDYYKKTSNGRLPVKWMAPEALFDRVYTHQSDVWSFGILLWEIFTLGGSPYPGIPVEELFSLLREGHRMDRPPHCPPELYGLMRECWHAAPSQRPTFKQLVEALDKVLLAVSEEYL
T9 sequence (P11362 22-822): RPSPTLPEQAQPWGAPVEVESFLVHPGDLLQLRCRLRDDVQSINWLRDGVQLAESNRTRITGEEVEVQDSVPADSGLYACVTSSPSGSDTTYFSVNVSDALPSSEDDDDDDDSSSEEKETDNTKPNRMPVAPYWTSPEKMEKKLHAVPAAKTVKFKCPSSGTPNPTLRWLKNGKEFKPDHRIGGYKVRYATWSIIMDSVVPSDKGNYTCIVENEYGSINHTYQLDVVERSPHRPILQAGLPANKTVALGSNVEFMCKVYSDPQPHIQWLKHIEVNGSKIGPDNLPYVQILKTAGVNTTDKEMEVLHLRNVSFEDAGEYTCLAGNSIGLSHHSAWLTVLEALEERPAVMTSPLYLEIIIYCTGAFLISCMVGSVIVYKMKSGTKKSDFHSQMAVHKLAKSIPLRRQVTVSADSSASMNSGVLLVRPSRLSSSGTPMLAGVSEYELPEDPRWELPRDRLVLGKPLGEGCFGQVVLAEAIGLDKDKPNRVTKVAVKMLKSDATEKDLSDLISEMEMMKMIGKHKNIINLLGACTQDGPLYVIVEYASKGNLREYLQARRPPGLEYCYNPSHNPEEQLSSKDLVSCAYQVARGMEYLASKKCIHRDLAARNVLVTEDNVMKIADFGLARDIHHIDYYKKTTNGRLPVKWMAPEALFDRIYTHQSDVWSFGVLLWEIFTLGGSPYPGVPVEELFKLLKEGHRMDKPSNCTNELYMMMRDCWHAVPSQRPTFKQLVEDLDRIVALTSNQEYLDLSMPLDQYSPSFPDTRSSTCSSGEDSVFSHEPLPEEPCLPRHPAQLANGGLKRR
T8 sequence (P21802 22-821): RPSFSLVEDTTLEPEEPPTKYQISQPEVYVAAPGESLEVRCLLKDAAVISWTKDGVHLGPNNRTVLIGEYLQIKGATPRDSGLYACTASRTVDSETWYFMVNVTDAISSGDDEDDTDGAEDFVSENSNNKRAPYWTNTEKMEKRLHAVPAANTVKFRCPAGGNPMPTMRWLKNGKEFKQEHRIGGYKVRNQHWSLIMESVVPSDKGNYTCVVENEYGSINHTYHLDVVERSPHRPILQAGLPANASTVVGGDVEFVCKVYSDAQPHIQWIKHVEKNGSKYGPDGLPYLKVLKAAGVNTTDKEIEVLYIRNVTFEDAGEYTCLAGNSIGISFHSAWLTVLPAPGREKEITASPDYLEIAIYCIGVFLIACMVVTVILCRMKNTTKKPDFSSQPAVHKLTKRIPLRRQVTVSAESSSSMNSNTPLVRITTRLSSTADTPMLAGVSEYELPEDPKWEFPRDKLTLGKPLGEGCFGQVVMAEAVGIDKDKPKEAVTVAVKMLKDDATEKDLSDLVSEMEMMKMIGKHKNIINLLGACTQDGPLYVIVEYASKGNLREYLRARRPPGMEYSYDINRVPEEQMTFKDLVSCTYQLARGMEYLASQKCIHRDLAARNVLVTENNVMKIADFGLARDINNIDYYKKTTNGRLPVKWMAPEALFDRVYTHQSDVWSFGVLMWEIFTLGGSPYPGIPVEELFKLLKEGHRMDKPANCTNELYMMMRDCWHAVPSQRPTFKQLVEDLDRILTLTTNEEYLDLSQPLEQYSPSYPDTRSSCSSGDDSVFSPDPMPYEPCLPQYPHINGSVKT
T5 sequence (P22607 23-806): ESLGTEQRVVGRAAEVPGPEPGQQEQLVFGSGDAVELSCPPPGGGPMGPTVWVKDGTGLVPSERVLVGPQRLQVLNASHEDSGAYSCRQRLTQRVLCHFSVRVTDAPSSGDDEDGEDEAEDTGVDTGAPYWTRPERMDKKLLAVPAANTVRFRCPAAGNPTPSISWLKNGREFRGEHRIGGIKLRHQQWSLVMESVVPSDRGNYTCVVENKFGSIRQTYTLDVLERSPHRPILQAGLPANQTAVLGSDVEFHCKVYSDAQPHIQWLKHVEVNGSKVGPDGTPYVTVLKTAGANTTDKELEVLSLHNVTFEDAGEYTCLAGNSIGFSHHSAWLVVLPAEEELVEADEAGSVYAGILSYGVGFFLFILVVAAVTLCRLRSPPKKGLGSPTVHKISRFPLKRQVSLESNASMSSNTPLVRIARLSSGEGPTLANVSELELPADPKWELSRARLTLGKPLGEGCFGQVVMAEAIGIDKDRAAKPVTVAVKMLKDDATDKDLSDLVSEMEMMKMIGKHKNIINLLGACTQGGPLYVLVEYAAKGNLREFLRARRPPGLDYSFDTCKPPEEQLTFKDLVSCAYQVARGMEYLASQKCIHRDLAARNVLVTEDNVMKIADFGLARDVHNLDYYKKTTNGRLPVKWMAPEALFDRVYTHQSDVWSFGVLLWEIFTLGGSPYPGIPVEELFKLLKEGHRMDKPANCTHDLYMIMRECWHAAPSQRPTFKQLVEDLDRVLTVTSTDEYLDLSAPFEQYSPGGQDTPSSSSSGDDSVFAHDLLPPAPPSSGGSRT
T7 sequence (P22455 22-802): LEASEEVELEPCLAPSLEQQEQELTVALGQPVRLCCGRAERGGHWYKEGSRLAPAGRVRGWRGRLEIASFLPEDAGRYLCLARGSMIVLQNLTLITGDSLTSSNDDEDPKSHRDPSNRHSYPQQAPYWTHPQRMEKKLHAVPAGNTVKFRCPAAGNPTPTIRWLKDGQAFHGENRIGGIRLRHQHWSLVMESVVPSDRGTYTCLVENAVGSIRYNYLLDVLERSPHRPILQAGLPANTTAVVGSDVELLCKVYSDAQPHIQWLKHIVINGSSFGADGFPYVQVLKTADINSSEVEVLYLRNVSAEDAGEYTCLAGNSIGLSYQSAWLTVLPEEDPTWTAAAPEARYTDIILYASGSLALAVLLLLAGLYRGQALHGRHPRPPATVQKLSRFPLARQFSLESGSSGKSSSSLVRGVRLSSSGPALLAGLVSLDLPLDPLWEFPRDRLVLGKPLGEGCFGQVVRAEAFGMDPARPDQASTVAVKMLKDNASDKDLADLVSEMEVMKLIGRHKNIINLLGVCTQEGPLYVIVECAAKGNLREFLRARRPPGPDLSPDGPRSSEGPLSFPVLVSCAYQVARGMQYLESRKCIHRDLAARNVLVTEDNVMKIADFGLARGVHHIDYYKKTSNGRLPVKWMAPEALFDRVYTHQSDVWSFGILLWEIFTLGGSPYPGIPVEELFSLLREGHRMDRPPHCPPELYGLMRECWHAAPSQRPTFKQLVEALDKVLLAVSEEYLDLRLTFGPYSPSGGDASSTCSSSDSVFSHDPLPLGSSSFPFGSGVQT
T4 sequence (P11362 478-767 limits assumed): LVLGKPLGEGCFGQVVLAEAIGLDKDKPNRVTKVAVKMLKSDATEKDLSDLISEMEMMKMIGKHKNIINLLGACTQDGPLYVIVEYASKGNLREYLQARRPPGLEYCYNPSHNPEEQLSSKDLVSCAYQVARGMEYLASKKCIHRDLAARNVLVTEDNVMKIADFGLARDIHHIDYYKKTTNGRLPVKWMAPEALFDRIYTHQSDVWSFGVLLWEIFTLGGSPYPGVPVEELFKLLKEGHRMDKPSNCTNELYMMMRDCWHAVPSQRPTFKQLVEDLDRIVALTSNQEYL
T2 sequence (P21802 481-770 limits assumed): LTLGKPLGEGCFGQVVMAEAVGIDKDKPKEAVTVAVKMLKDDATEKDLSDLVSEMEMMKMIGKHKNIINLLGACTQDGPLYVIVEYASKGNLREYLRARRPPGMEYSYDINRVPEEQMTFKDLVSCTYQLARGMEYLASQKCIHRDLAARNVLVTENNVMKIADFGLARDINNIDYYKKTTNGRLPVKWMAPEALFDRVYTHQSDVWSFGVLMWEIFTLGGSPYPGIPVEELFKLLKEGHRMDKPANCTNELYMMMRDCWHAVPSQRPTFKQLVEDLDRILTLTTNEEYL
T3 sequence (P22607 397-758 limits assumed): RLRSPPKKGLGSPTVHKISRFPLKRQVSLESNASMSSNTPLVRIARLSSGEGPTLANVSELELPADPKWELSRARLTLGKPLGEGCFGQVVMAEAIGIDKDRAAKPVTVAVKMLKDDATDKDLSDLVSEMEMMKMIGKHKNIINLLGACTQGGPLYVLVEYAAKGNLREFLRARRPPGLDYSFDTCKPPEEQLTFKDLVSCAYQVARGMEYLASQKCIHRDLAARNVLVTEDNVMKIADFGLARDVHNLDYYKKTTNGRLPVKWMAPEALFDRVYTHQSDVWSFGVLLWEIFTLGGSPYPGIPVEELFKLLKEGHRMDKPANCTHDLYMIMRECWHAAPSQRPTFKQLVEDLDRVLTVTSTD
T6 sequence (P22607 23-806 V555M): as the sequence (P22607 23-806) above, with V533M counted along it

Compound	Kd [1]	Kd [2]	IC50 [3]	Kd [4]	Kd [5]	Kd [6]	Kd [7]	Kd [8]	Kd [9]	Kd [10]	IC50 [11]	IC50 [12]
C=CC(=O)N1CCC2(CC1)CC(n1ncc(-c3cc(O[C@H](CO)c4ccc(F)cn4)c4c(C#N)cnn4c3)c1C)C2 [Example 9, (S)-6-(1-(7-acryloyl-7-azaspiro[3.5]nonan-2-yl)-5-methyl-1H-pyrazol-4-yl)-4-(1-(5-fluoropyridin-2-yl)-2-hydroxyethoxy)pyrazolo[1,5-a]pyridine-3-carbonitrile]	250 to 1000 nM	100 to 250 nM	250 to 1000 nM	0.1 to 100 nM	250 to 1000 nM	0.1 to 100 nM	0.1 to 100 nM	0.1 to 100 nM	0.1 to 100 nM	0.1 to 100 nM	≥ 1000 nM	250 to 1000 nM
C=CC(=O)N1CCC2(CC1)CC(n1nnc(-c3cc(O[C@H](C)c4ccccn4)c4c(C#N)cnn4c3)c1C)C2 [Example 3, (R)-6-(1-(7-acryloyl-7-azaspiro[3.5]nonan-2-yl)-5-methyl-1H-1,2,3-triazol-4-yl)-4-(1-(pyridin-2-yl)ethoxy)pyrazolo[1,5-a]pyridine-3-carbonitrile]	100 to 250 nM	0.1 to 100 nM	0.1 to 100 nM	0.1 to 100 nM	0.1 to 100 nM	0.1 to 100 nM	–	–	–	0.1 to 100 nM	0.1 to 100 nM	0.1 to 100 nM
C=CC(=O)N1CCC2(CC1)CC(n1ncc(-c3cc(OC(CO)c4ccnn4C)c4c(C#N)cnn4c3)c1C)C2 (stereo not drawn) [Example 11, 6-(1-(7-acryloyl-7-azaspiro[3.5]nonan-2-yl)-5-methyl-1H-pyrazol-4-yl)-4-(2-hydroxy-1-(1-methyl-1H-pyrazol-5-yl)ethoxy)pyrazolo[1,5-a]pyridine-3-carbonitrile]	≥ 1000 nM	≥ 1000 nM	–	250 to 1000 nM	≥ 1000 nM	100 to 250 nM	100 to 250 nM	250 to 1000 nM	100 to 250 nM	250 to 1000 nM	–	–
C=CC(=O)N1CCC2(CC1)CC(n1ncc(-c3cc(O[C@@H](CO)c4ccccn4)c4c(C#N)cnn4c3)c1C)C2 [Example 7, (R)-6-(1-(7-acryloyl-7-azaspiro[3.5]nonan-2-yl)-5-methyl-1H-pyrazol-4-yl)-4-(2-hydroxy-1-(pyridin-2-yl)ethoxy)pyrazolo[1,5-a]pyridine-3-carbonitrile]	250 to 1000 nM	250 to 1000 nM	–	100 to 250 nM	≥ 1000 nM	100 to 250 nM	250 to 1000 nM	250 to 1000 nM	100 to 250 nM	250 to 1000 nM	–	–
C=CC(=O)N1CCC2(CC1)CC(n1ncc(-c3cc(OC(CO)c4cncc5ccccc45)c4c(C#N)cnn4c3)c1C)C2 (stereo not drawn) [Example 15, 6-(1-(7-acryloyl-7-azaspiro[3.5]nonan-2-yl)-5-methyl-1H-pyrazol-4-yl)-4-(2-hydroxy-1-(isoquinolin-4-yl)ethoxy)pyrazolo[1,5-a]pyridine-3-carbonitrile]	250 to 1000 nM	100 to 250 nM	–	0.1 to 100 nM	100 to 250 nM	0.1 to 100 nM	0.1 to 100 nM	0.1 to 100 nM	0.1 to 100 nM	0.1 to 100 nM	–	–
C=CC(=O)N1CC(OC)(C(=O)N2CCC(n3nnc(-c4cc(O[C@@H](CO)c5ccccn5)c5c(C#N)cnn5c4)c3C)CC2)C1 [Example 21, (R)-6-(1-(1-(1-acryloyl-3-methoxyazetidine-3-carbonyl)piperidin-4-yl)-5-methyl-1H-1,2,3-triazol-4-yl)-4-(2-hydroxy-1-(pyridin-2-yl)ethoxy)pyrazolo[1,5-a]pyridine-3-carbonitrile]	≥ 1000 nM	≥ 1000 nM	–	≥ 1000 nM	≥ 1000 nM	100 to 250 nM	250 to 1000 nM	≥ 1000 nM	250 to 1000 nM	≥ 1000 nM	–	–
COC1(C(=O)N2CCC(n3nnc(-c4cc(OC(CO)c5ccccn5)c5c(C#N)cnn5c4)c3C)CC2)CN(C(=O)/C=C/CN(C)C)C1 (stereo not drawn) [Example 23, (E)-6-(1-(1-(1-(4-(dimethylamino)but-2-enoyl)-3-methoxyazetidine-3-carbonyl)piperidin-4-yl)-5-methyl-1H-1,2,3-triazol-4-yl)-4-(2-hydroxy-1-(pyridin-2-yl)ethoxy)pyrazolo[1,5-a]pyridine-3-carbonitrile]	≥ 1000 nM	≥ 1000 nM	–	250 to 1000 nM	≥ 1000 nM	0.1 to 100 nM	0.1 to 100 nM	0.1 to 100 nM	0.1 to 100 nM	0.1 to 100 nM	–	–
